{"source": "patent US20230382891A1", "about": "“GLUTAMINYL-PEPTIDE CYCLOTRANSFERASE LIKE (QPCTL) PROTEIN INHIBITORS AND USES THEREOF” (Blacksmith Medicines, Inc., priority 2020, published 2023)", "note": "pIC50: −log10 of the molar value.", "data": [{"molecular_target": "Glutaminyl-peptide cyclotransferase like (QPCTL) protein (Homo sapiens, UniProt Q9NXS2)", "sequence (Q9NXS2 whole entry, species assumed)": "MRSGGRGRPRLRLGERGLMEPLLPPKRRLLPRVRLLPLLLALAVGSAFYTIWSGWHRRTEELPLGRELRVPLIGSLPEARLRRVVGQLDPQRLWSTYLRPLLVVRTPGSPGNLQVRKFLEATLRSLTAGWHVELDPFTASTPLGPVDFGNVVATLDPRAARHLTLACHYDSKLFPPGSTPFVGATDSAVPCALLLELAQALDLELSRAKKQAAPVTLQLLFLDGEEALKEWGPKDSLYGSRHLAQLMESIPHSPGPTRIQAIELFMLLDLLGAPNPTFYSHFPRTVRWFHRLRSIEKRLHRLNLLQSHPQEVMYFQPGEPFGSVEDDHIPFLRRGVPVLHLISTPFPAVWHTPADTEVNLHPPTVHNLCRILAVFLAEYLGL", "test": "Glutaminyl-peptide cyclotransferase like (QPCTL) protein inhibition assay (Gln-AMC substrate, pGAPase coupled)", "format": "biochemical", "conditions": "50 mM MES pH 7.0, 10 μM ZnCl2, 0.2 U/mL pGAPase, Gln-AMC at its Km, 30° C.", "description": "Example B-1: Glutaminyl-Peptide Cyclotransferase Like (OPCTL) Protein Inhibition Assay\nGlutaminyl-peptide cyclotransferase like (QPCTL) protein activity was determined using L-glutamine-7-amido-4-methylcoumarin (Gln-AMC, Santa Cruz Biotechnology) as a substrate. A second enzyme, pyroglutamyl aminopeptidase (pGAPase, Qiagen), was included in the assay to release the AMC fluorophore following cyclization; appropriate controls were run to ensure that inhibitors were not inhibiting the auxiliary enzyme. Inhibitors were added at various concentrations to buffer (final concentrations: 50 mM MES pH 7.0, 10 μM ZnCl2, 0.2 U/mL pGAPase, Gln-AMC at its Km) and the reaction initiated by the addition of QPCTL. Reactions became linear after a 10-minute equilibration period at 30° C. (to accumulate pGlu-AMC intermediate), and were monitored for an additional 10 minutes.\nTable A provides QPCTL inhibitory activity of illustrative compounds, where A means IC50 is <1 μM; B means IC50 is between 1 to 10 μM; C means IC50 is between 10 to 50 PM; D means IC50 is >50 PM.", "values": [{"molecule": "Nc1nnc(C2CCN(c3ncccc3-c3ccc(F)nc3)CC2)o1", "note": "[Compound 2, 5-(1-(6′-fluoro-[3,3′-bipyridin]-2-yl)piperidin-4-yl)-1,3,4-oxadiazol-2-amine]", "pIC50": "> 6.00"}, {"molecule": "COc1ccc(C2=CCCN(CC#Cc3cccn4cnnc34)C2)cc1OC", "note": "[Compound 23, 8-(3-(5-(3,4-dimethoxyphenyl)-3,6-dihydropyridin-1(2H)-yl)prop-1-yn-1-yl)-[1,2,4]triazolo[4,3-a]pyridine]", "QPCTL IC50": "C (C means IC50 is between 10 to 50 PM)"}, {"molecule": "CNc1nnc(C2CCN(c3ncccc3-c3ccc(F)nc3)CC2)[nH]1", "note": "[Compound 7, 5-(1-(6′-fluoro-[3,3′-bipyridin]-2-yl)piperidin-4-yl)-N-methyl-4H-1,2,4-triazol-3-amine]", "pIC50": "> 6.00"}, {"molecule": "C1=C(c2cccn3cncc23)CCN(c2ccccn2)C1", "note": "[Compound 24, 8-(3,6-dihydro-2H-[1,2′-bipyridin]-4-yl)imidazo[1,5-a]pyridine]", "pIC50": "5.00 to 6.00"}, {"molecule": "C1=C(c2cccn3cnnc23)CCN(c2ccccn2)C1", "note": "[Compound 22, 8-(3,6-dihydro-2H-[1,2′-bipyridin]-4-yl)-[1,2,4]triazolo[4,3-a]pyridine]", "QPCTL IC50": "C (C means IC50 is between 10 to 50 PM)"}, {"molecule": "Nc1nnc2c(C3=CCN(c4ncccc4-c4ccc(F)nc4)CC3)cccn12", "note": "[Compound 15, 8-(6″-fluoro-3,6-dihydro-2H-[1,2′:3′,3″-terpyridin]-4-yl)-[1,2,4]triazolo[4,3-a]pyridin-3-amine]", "pIC50": "> 6.00"}, {"molecule": "COc1ccc(CN2CCC=C(c3cccn4cnnc34)C2)cc1OC", "note": "[Compound 25, 8-(1-(3,4-dimethoxybenzyl)-1,2,5,6-tetrahydropyridin-3-yl)-[1,2,4]triazolo[4,3-a]pyridine]", "QPCTL IC50": "D (D means IC50 is >50 PM)"}, {"molecule": "COCCOc1ccc(-c2cccnc2N2CC=C(c3cccn4cnnc34)CC2)cn1", "note": "[Compound 19, 8-(6″-(2-methoxyethoxy)-3,6-dihydro-2H-[1,2′:3′,3″-terpyridin]-4-yl)-[1,2,4]triazolo[4,3-a]pyridine]", "pIC50": "5.00 to 6.00"}, {"molecule": "Nc1ccc(-c2cccnc2N2CC=C(c3cccn4cnnc34)CC2)cn1", "note": "[Compound 13, 4-([1,2,4]triazolo[4,3-a]pyridin-8-yl)-3,6-dihydro-2H-[1,2′:3′,3″-terpyridin]-6″-amine]", "pIC50": "5.00 to 6.00"}, {"molecule": "N#Cc1ccc(-c2cccnc2N2CC=C(c3cccn4cnnc34)CC2)cn1", "note": "[Compound 12, 4-([1,2,4]triazolo[4,3-a]pyridin-8-yl)-3,6-dihydro-2H-[1,2′:3′,3″-terpyridine]-6″-carbonitrile]", "pIC50": "5.00 to 6.00"}, {"molecule": "Fc1ccc(-c2cccnc2N2CC=C(c3cccn4cncc34)CC2)cn1", "note": "[Compound 20, 8-(6″-fluoro-3,6-dihydro-2H-[1,2′:3′,3″-terpyridin]-4-yl)imidazo[1,5-a]pyridine]", "pIC50": "5.00 to 6.00"}, {"molecule": "OCCn1cc(C2CN(c3ccccn3)CC=C2c2cccn3cnnc23)cn1", "note": "(stereo not shown) [Compound 26, 2-(4-(4-([1,2,4]triazolo[4,3-a]pyridin-8-yl)-3,6-dihydro-2H-[1,2′-bipyridin]-3-yl)-1H-pyrazol-1-yl)ethan-1-ol]", "pIC50": "5.00 to 6.00"}, {"molecule": "1-(1-(6′-chloro-[3,3′-bipyridin]-2-yl)piperidin-4-yl)-1H-1,2,3-triazol-4-amine [Compound 3]", "pIC50": "> 6.00"}, {"molecule": "Nc1nnc(C2CCN(c3ncccc3-c3ccc(F)nc3)CC2)[nH]1", "note": "[Compound 1, 5-(1-(6′-fluoro-[3,3′-bipyridin]-2-yl)piperidin-4-yl)-4H-1,2,4-triazol-3-amine]", "pIC50": "> 6.00"}, {"molecule": "Fc1ccc(-c2cccnc2N2CC=C(c3cccn4cnnc34)CC2)cc1F", "note": "[Compound 11, 8-(3′-(3,4-difluorophenyl)-3,6-dihydro-2H-[1,2′-bipyridin]-4-yl)-[1,2,4]triazolo[4,3-a]pyridine]", "QPCTL IC50": "C (C means IC50 is between 10 to 50 PM)"}, {"molecule": "Fc1ccc(CN2CC=C(c3cccn4cnnc34)CC2)cn1", "note": "[Compound 21, 8-(1-((6-fluoropyridin-3-yl)methyl)-1,2,3,6-tetrahydropyridin-4-yl)-[1,2,4]triazolo[4,3-a]pyridine]", "QPCTL IC50": "D (D means IC50 is >50 PM)"}, {"molecule": "c1ccc(N2CCC(C3CCCn4cnnc43)CC2)nc1", "note": "(stereo not shown) [Compound 27, 8-(1-(pyridin-2-yl)piperidin-4-yl)-5,6,7,8-tetrahydro-[1,2,4]triazolo[4,3-a]pyridine]", "QPCTL IC50": "C (C means IC50 is between 10 to 50 PM)"}, {"molecule": "COc1ccc(-c2cccnc2N2CC=C(c3cccn4cnnc34)CC2)cn1", "note": "[Compound 14, 8-(6″-methoxy-3,6-dihydro-2H-[1,2′:3′,3″-terpyridin]-4-yl)-[1,2,4]triazolo[4,3-a]pyridine]", "pIC50": "5.00 to 6.00"}, {"molecule": "Cn1c(N)nnc1C1CCN(c2nc(F)ccc2-c2ccc(F)nc2)CC1", "note": "[Compound 5, 5-(1-(6,6′-difluoro-[3,3′-bipyridin]-2-yl)piperidin-4-yl)-4-methyl-4H-1,2,4-triazol-3-amine]", "pIC50": "> 6.00"}, {"molecule": "Cc1c(N)nnn1C1CCN(c2ncccc2-c2ccc(F)nc2)CC1", "note": "[Compound 10, 1-(1-(6′-fluoro-[3,3′-bipyridin]-2-yl)piperidin-4-yl)-5-methyl-1H-1,2,3-triazol-4-amine]", "pIC50": "> 6.00"}, {"molecule": "C1=C(c2cccn3cnnc23)CCN(c2ncccc2-c2cncnc2)C1", "note": "[Compound 16, 8-(3′-(pyrimidin-5-yl)-3,6-dihydro-2H-[1,2′-bipyridin]-4-yl)-[1,2,4]triazolo[4,3-a]pyridine]", "QPCTL IC50": "C (C means IC50 is between 10 to 50 PM)"}, {"molecule": "Fc1ccc(-c2cccnc2N2CC=C(c3cccn4cnnc34)CC2)cn1", "note": "[Compound 18, 8-(6″-fluoro-3,6-dihydro-2H-[1,2′:3′,3″-terpyridin]-4-yl)-[1,2,4]triazolo[4,3-a]pyridine]", "pIC50": "5.00 to 6.00"}, {"molecule": "Nc1nnc2c(C3CCN(c4ncccc4-c4ccc(F)nc4)CC3)cccn12", "note": "[Compound 17, 8-(1-(6′-fluoro-[3,3′-bipyridin]-2-yl)piperidin-4-yl)-[1,2,4]triazolo[4,3-a]pyridin-3-amine]", "pIC50": "> 6.00"}, {"molecule": "Cc1ccc(-c2ccc(F)nc2)c(N2CCC(c3nnc(N)n3C)CC2)n1", "note": "[Compound 4, 5-(1-(6′-fluoro-6-methyl-[3,3′-bipyridin]-2-yl)piperidin-4-yl)-4-methyl-4H-1,2,4-triazol-3-amine]", "pIC50": "> 6.00"}, {"molecule": "Cn1c(N)nnc1C1CCN(c2ncccc2-c2ccc(F)nc2)CC1", "note": "[Compound 6, 5-(1-(6′-fluoro-[3,3′-bipyridin]-2-yl)piperidin-4-yl)-4-methyl-4H-1,2,4-triazol-3-amine]", "pIC50": "> 6.00"}]}]}
